How the values were obtained:
SaOS-2 cells [1] = assay: MTT cell viability assay on SaOS-2; conditions: for CV (%) after 24 h (cellular viability with respect to control): 24 h treatment; for CV (%) after 24 h (cellular viability with respect to control) / CV (%) after 48 h (cellular viability with respect to control): control = 100%, mean ± SD; for CV (%) after 48 h (cellular viability with respect to control): 48 h treatment, 25 μM; for IC50: read-out: IC50 on SaOS-2 cell viability, MTT, 1-100 μM, 48 h
SaOS-2 cells [2] = assay: flow cytometric cell cycle/apoptosis analysis on SaOS-2; conditions: 48 h, 3 μM to 100 μM
[3] = test system: Src-Y416 phosphorylation in SaOS-2; assay: immunoblotting of phospho-Src-Y416 in SaOS-2; assay type: cell-based, human; conditions: SaOS-2, compounds at their IC50, 3 h
Protocol: Compounds were used at their corresponding IC50. Cells were treated for 3 h prior to their lysis. A) Specific c-Src phosphorylation was evaluated when whole-cell lysates were immunoprobed with anti-nonphospho-Src-Y416 and anti-phospho-Src-Y416 antibodies. B) Graph reports the optical density values relative to immunoreactive bands of phospho-Src-Y416. […] C) Graphical representation of SI-83 (magenta) into the ATP binding pocket of Src. The solvent accessible surface of residues is depicted (blue), while several amino acids, responsible for the major hydrophobic contacts with the binding site, are also shown (cyan).
For Phospho-SrcY416 detection, cells were lysed in ice-cold 0.1% SDS containing a cocktail of protease inhibitors and 1 mM sodium orthovanadate (Sigma-Aldrich). […] All antibodies employed were from Cell Signaling Technology ([…], USA). Proteins were probed with primary antibodies o.n. at 4° C., followed by secondary antibodies for 1 h at room temperature. Detection was obtained by ImmunoStar HRP™ (BioRad). Band areas were detected using ImageScanner™ (Amersham Bioscience, Little Chalfont, GB) and bands' optical densities were analysed by Image Master software (Amersham Bioscience). Band optical densities of Phospho-SrcY416 were normalized against those of total Src as an internal control.

[4] = test system: primary human osteoblasts; assay: MTT cell viability assay on primary human osteoblasts; conditions: 48 h; for reduction of osteoblast growth (inhibitory activity): 25 μM
SaOS-2 cells [5] = assay: TUNEL assay on SaOS-2; assay type: cell-based, human; conditions: 48 h treatment, 12.5 μM
[6] = test system: primary human osteoblasts; assay: flow cytometric apoptosis analysis on primary osteoblasts; conditions: for reduction of pro-apoptotic effect on osteoblasts respecting to SaOS-2: at IC50 (determined on SaOS-2), 48 h
normal human osteoblasts = assay: nodule formation and mineralization (alizarin red S); conditions: IC5, IC20, IC50 (SaOS-2); for tolerance of treatment by osteoblasts: three weeks
recombinant human Src = recombinant human Src (Homo sapiens, UniProt P12931); assay: cell-free Src enzymatic assay; assay type: biochemical; conditions: calculated from ID50; triplicate, mean values; read-out: Ki toward recombinant human Src
recombinant human Src, sequence (P12931 whole entry): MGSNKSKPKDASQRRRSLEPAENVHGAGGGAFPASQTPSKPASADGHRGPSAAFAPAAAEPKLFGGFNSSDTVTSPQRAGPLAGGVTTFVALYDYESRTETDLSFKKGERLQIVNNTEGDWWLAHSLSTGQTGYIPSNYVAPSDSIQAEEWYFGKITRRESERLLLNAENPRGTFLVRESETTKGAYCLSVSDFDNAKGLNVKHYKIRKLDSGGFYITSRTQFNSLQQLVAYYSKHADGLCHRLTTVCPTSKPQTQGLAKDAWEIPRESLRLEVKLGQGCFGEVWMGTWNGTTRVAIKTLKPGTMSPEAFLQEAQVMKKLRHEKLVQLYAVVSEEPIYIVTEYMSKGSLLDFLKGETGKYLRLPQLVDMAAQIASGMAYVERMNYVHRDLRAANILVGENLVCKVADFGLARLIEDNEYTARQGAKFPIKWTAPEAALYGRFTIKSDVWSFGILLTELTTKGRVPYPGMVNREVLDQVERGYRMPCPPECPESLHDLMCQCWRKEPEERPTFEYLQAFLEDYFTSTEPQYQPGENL

[7] = test system: Ba/F3 cells expressing mutated Bcr-Abl / IM-resistant cell lines; assay: Annexin V/PI apoptotic assay on Ba/F3 cells; assay type: cell-based; conditions: 5 μM
Protocol: Apoptotic assay was performed on 1×10^6 cells and apoptotic cells were recognized by cytofluorimetric analysis of fluorescinated Annexin V (Roche) and PI uptake.

[8] = test system: phosphorylation of Bcr-Abl (Tyr245), Src (Tyr416) and Lyn (Tyr507); assay: western blot of kinase phosphorylation in Ba/F3 cells; assay type: cell-based; conditions: 5 μM, up to 24th h of exposure, Imatinib-sensitive and resistant contexts
Protocol: The inhibitory effects of S29 toward the phosphorylation of Bcr-Abl (Tyr245), Src (Tyr416) and Lyn (Tyr507) were assessed using western blot analysis. Whole cell lysates were obtained from 1×10^7 cells (either untreated or following 24 h and 48 h exposure to 5 μM S29) in lysis buffer.
Protein lysates from whole cells were incubated overnight with the primary antibodies (anti-Abl phosphorylated at Tyr245, Cell Signaling; anti-Src phosphorylated at Tyr416, Cell Signaling; anti-Lyn phosphorylated at Tyr507, Cell Signaling; anti-Lyn, Biosource; anti-Beta-actin, Santa Cruz Biotechnology) and then 1 h at rt with the secondary antibodies (Amersham). Beta actin was used for protein loading control. Signal intensities from 3 repeated blots were quantified by a GS-700 Imagining densitometer (BioRad) equipped with a dedicated software (Molecular Analyst).

MNNG cells = assay: MTT cell viability assay on MNNG; assay type: cell-based, human; conditions: 48 h
MG63 = assay: MTT cell viability assay on MG63; assay type: cell-based, human; conditions: 48 h
in vitro = conditions: male, human, primary human osteoblasts
mouse osteoclasts = assay: osteoclast bone resorption assay; assay type: cell-based
Source text: It is very important to note that there is a significant difference in bone resorption for the control (DMSO) in the two experiments reported in FIG. 4. […] The method used to measure bone resorption is based on the growth in vitro of osteoclasts that then resorb bone. However, this cell-based assay is usually characterized by a significant variability, mainly due to the fact that the basic amount of bone resorption can vary among replicates. Although such a limitation, this assay is widely recognized as the gold standard to assess the ability of compounds to inhibit bone resorption by osteoclasts.^53

[9] = test system: human primary osteoblasts; assay: Hoechst staining of primary osteoblasts; conditions: 25 μM
SaOS-2 xenograft = SaOS-2 xenograft in nude mice; assay type: in vivo, CD 1 nude mice
Protocol: In order to evaluate the effect of SI-83 in a preclinical experimental model of osteosarcoma the authors injected s.c. SaOS-2 cells together with Matrigel in nude mice. […] The authors divided mice in three groups containing each 4 mice: mice receiving vehicle (control); mice receiving 50 mg/kg SI-83; mice receiving 100 mg/kg SI-83. The administration of SI-83 determined at endpoint a reduction in xenograft growth respect to control measured as weight reduction (FIG. 6B1). At the dose of 100 mg/kg, SI-83 determined a significant reduction (P<0.01) in tumour weight of about 40% respect to control tumours. Also the administration of 50 mg/kg SI-83 determined a smaller (about 15%) but significant reduction (p<0.05) in tumour volume respect to control (FIG. 6B1). Xenograft tissues were processed for histologic evaluation of phospho-Src expression (FIG. 6B3). Tumour cells in the control group expressed detectable levels of phospho-Src.
CD 1 nude mice (Charles River, Milan, Italy) were maintained under the guidelines established by the authors' Institution (University of L'Aquila, Medical School and Science and Technology School Board Regulations, complying with the Italian government regulation n.116 Jan. 27, 1992 for the use of laboratory animals). Before tumour cells implantation, mice were anesthesized with a mixture of ketamine (25 mg/mL)/xylazine (5 mg/mL). Xenografts were obtained by injecting s.c. 1×10^6 SaOS-2 cells in 100 μL of 12 mg/ml Matrigel (Becton Dickinson). Mice received daily the drug by per os administration at the doses indicated. Tumour growth was monitored daily and at the endpoint, after 26 days, the tumors were excided, weighted and processed for histology. Briefly tumors were fixed in 4% formaldehyde in 0.1 M phosphate buffer, pH 7.2 and embedded in paraffin. Slide-mounted tissue sections (4 μm thick) were deparaffinized in xylene and hydrated serially in 100, 95, and 80% ethanol. Endogenous peroxidases were quenched in 3% H2O2 in PBS for 1 h and then slides were incubated with anti human Src [pY416] phosphospecific antibody (Biosource, Camarillo, Calif., USA) for 1 h at room temperature.

U-20S = assay: MTT cell viability assay on U-20S; assay type: cell-based, human; conditions: 48 h
TE-85 = assay: MTT cell viability assay on TE-85; assay type: cell-based, human; conditions: 48 h

In the case of `CC(C)(C)n1nc(-c2ccc(Cl)cc2)c2c(N)ncnc21` [PP2, reference compound], the “concentration at which 83% inhibition of cell viability is obtained” value (SaOS-2 cells [1]; SaOS-2, MTT) is reported as “higher than 50 μM”, the “CV (%) after 24 h (cellular viability with respect to control)” value (SaOS-2 cells [1]; SaOS-2, MTT) is reported as 36.8 ± 1.7% and the “CV (%) after 48 h (cellular viability with respect to control)” value (SaOS-2 cells [1]; SaOS-2, MTT) is reported as 36.4 ± 1.6%. The IC50 (SaOS-2 cells [1]) was 8.07 µM, the cell cycle progression (SaOS-2 cells [2]) was “stop cell cycle progression in G0 and G1 phases in a dose-dependent manner” and the “inhibition of phosphorylation of Src at Y416” value [3] was 50%. For the same molecule, the “reduction of osteoblast growth (inhibitory activity)” value [4] was 50%, the “pro-apoptotic effect (TUNEL)” value (SaOS-2 cells [5]) was “induced apoptosis” and the “reduction of pro-apoptotic effect on osteoblasts respecting to SaOS-2” value [6] was 15%. The “tolerance of treatment by osteoblasts” value (normal human osteoblasts) was “did not tolerate drug treatment” and the “percentage of Ca2+ inside calcification nodules” value (normal human osteoblasts; twice a week, 1-3 weeks) was “always lower than control”.
For `Fc1ccc(CNc2ncnc3c2cnn3CC(Cl)c2ccc(Cl)cc2)cc1` (centres unmarked) [S-29], the Ki (recombinant human Src) was 0.5 µM, the apoptosis induction ([7]; IM-resistant cell lines additioned with IL-3, after 24 h of exposure) was “apoptosis occurred” and the apoptosis induction ([7]; mutated cell lines, after 48 h treatment) was “induced apoptotic death”. The “Bcr-Abl and Lyn-Src kinase phosphorylation” value [8] was “Complementary abrogation”.
With `CSc1nc(Nc2cccc(Cl)c2)c2cnn(CC(Cl)c3ccccc3)c2n1` (centres unmarked) [SI-83] the “CV (%) after 24 h (cellular viability with respect to control)” value (SaOS-2 cells [1]; SaOS-2, MTT) was 17.1 ± 1.3%, the “CV (%) after 48 h (cellular viability with respect to control)” value (SaOS-2 cells [1]; SaOS-2, MTT) was 15.1 ± 0.7% and the IC50 (SaOS-2 cells [1]) was 12.6 µM. The Ki (recombinant human Src) was 0.6 µM, the “response of cell viability compared with SaOS-2” value (MNNG cells) was “even more responsive than SaOS-2” and the “inhibition of phosphorylation of Src at Y416” value [3] was 55%. The “response of cell viability” value (MG63) was “less susceptible”, the viability at 48 h, 25 µM (in vitro) was about 80% and the bone resorption (mouse osteoclasts; 10 and 1 μM) was “abrogate bone resorption”. The “percent inhibition of bone resorption” value (mouse osteoclasts; reduced test dose (up to 1 nM)) was “lower but significant”, the “cell morphology / DNA damage (Hoechst)” value [9] was “did not alter cell morphology or cause DNA damage” and the osteoblast viability ([4]; 12.5 μM) was “not affected at all”. The “reduction of osteoblast growth (inhibitory activity)” value [4] was 20%, the “pro-apoptotic effect (TUNEL)” value (SaOS-2 cells [5]) was “strongest pro-apoptotic effect” and the “reduction of pro-apoptotic effect on osteoblasts respecting to SaOS-2” value [6] was 79%. For the same molecule, the “apoptosis induced in osteoblasts respecting to PP2” value ([6]; at respective IC50, time course 24, 48, 96 h) was “half of apoptosis”, the “reduction in tumour volume respect to control” value (SaOS-2 xenograft; 50 mg/kg daily per os, endpoint day 26, p<0.05) was “about 15%” and the “reduction in tumour weight respect to control” value (SaOS-2 xenograft; 100 mg/kg daily per os, endpoint day 26, P<0.01) was “about 40%”. The “signs of distress or loss of weight in mice” value (SaOS-2 xenograft; daily administration) was “did not determine any appreciable sign of distress or loss of weight”, the “phospho-Src staining of tumour tissues” value (SaOS-2 xenograft; treated groups, immunohistology Src [pY416]) was “faint or null staining” and the “response of cell viability” value (U-20S) was “less susceptible”. The “tolerance of treatment by osteoblasts” value (normal human osteoblasts) was “better tolerated” and the “response of cell viability” value (TE-85) was “less susceptible”.

— patent US8466164B2
